PubChem BioAssay (NCI)
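Abbreviation: GI50, concentration required for 50% inhibition of growth. TGI denotes the concentration required for complete inhibition of growth.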

Tests used:
Assay in all cases: inhibition of tumour cell growth, NCI panel, 384-well format
OVCAR-4 ovarian = tested on: OVCAR-4 ovarian
SK-OV-3 ovarian = tested on: SK-OV-3 ovarian
BT-549 breast = tested on: BT-549 breast
NCI/ADR-RES ovarian = tested on: NCI/ADR-RES ovarian
UACC-257 melanoma = tested on: UACC-257 melanoma
HT29 colon = tested on: HT29 colon
OVCAR-3 ovarian = tested on: OVCAR-3 ovarian
PC-3 prostate = tested on: PC-3 prostate
HCC-2998 colon = tested on: HCC-2998 colon
OVCAR-5 ovarian = tested on: OVCAR-5 ovarian
SF-539 CNS = tested on: SF-539 CNS
SW-620 colon = tested on: SW-620 colon
SNB-19 CNS = tested on: SNB-19 CNS
OVCAR-8 ovarian = tested on: OVCAR-8 ovarian
SF-268 CNS = tested on: SF-268 CNS
NCI-H322M lung = tested on: NCI-H322M lung
NCI-H460 NSCLC = tested on: NCI-H460 NSCLC
HOP-62 NSCLC = tested on: HOP-62 NSCLC
HCT-15 colon = tested on: HCT-15 colon
NCI-H522 lung = tested on: NCI-H522 lung
SK-MEL-5 melanoma = tested on: SK-MEL-5 melanoma
MDA-MB-435 melanoma = tested on: MDA-MB-435 melanoma
IGROV1 ovarian = tested on: IGROV1 ovarian
RPMI-8226 leukemia = tested on: RPMI-8226 leukemia
TK-10 renal = tested on: TK-10 renal
HCT-116 colon = tested on: HCT-116 colon
MALME-3M melanoma = tested on: MALME-3M melanoma
SR leukemia = tested on: SR leukemia
U251 glioblastoma = tested on: U251 glioblastoma
SNB-75 CNS = tested on: SNB-75 CNS
T-47D breast = tested on: T-47D breast
K-562 leukemia = tested on: K-562 leukemia
A498 renal = tested on: A498 renal
MOLT-4 leukemia = tested on: MOLT-4 leukemia
UO-31 renal = tested on: UO-31 renal
HS 578T breast = tested on: HS 578T breast
HL-60(TB) leukemia = tested on: HL-60(TB) leukemia
HOP-92 NSCLC = tested on: HOP-92 NSCLC
DU-145 prostate = tested on: DU-145 prostate
SN12C renal = tested on: SN12C renal
KM12 colon = tested on: KM12 colon
SK-MEL-28 melanoma = tested on: SK-MEL-28 melanoma
SF-295 CNS = tested on: SF-295 CNS
786-0 renal = tested on: 786-0 renal
RXF 393 renal = tested on: RXF 393 renal
ACHN renal = tested on: ACHN renal
NCI-H23 lung = tested on: NCI-H23 lung
CAKI-1 renal = tested on: CAKI-1 renal
MDA-MB-231 breast = tested on: MDA-MB-231 breast
MDA-MB-468 breast = tested on: MDA-MB-468 breast
EKVX NSCLC = tested on: EKVX NSCLC
COLO 205 colon = tested on: COLO 205 colon
MCF7 breast = tested on: MCF7 breast
CCRF-CEM leukemia = tested on: CCRF-CEM leukemia
A549 NSCLC = tested on: A549 NSCLC
NCI-H226 lung = tested on: NCI-H226 lung
M14 melanoma = tested on: M14 melanoma
LOX IMVI melanoma = tested on: LOX IMVI melanoma

COC[C@H]1OC(=O)c2coc3c2[C@@]1(C)C1=C(C3=O)[C@@H]2CCC(=O)[C@@]2(C)C[C@H]1OC(C)=O
GI50 (OVCAR-4 ovarian): 2.36 µM
TGI (OVCAR-4 ovarian): > 100 µM
GI50 (SK-OV-3 ovarian): 8.24 µM
TGI (SK-OV-3 ovarian): > 100 µM
GI50 (BT-549 breast): 3.31 µM
TGI (BT-549 breast): 42.8 µM
GI50 (NCI/ADR-RES ovarian): 25 µM
TGI (NCI/ADR-RES ovarian): > 100 µM
GI50 (UACC-257 melanoma): 13.6 µM
TGI (UACC-257 melanoma): > 100 µM
GI50 (HT29 colon): 7.88 µM
TGI (HT29 colon): > 100 µM
GI50 (OVCAR-3 ovarian): 2.74 µM
TGI (OVCAR-3 ovarian): 32.1 µM
GI50 (PC-3 prostate): 1.44 µM
TGI (PC-3 prostate): > 100 µM
GI50 (HCC-2998 colon): 3.91 µM
TGI (HCC-2998 colon): 44.6 µM
GI50 (OVCAR-5 ovarian): 15.4 µM
TGI (OVCAR-5 ovarian): > 100 µM
GI50 (SF-539 CNS): 22.5 µM
TGI (SF-539 CNS): > 100 µM
GI50 (SW-620 colon): 28.8 µM
TGI (SW-620 colon): > 100 µM
GI50 (SNB-19 CNS): 50.2 µM
TGI (SNB-19 CNS): > 100 µM
GI50 (OVCAR-8 ovarian): 14.7 µM
TGI (OVCAR-8 ovarian): > 100 µM
GI50 (SF-268 CNS): 4.4 µM
TGI (SF-268 CNS): 67.9 µM
GI50 (NCI-H322M lung): 6.91 µM
TGI (NCI-H322M lung): > 100 µM
GI50 (NCI-H460 NSCLC): 7.17 µM
TGI (NCI-H460 NSCLC): > 100 µM
GI50 (HOP-62 NSCLC): 10.9 µM
TGI (HOP-62 NSCLC): > 100 µM
GI50 (HCT-15 colon): 11.4 µM
TGI (HCT-15 colon): > 100 µM
GI50 (NCI-H522 lung): 20.3 µM
TGI (NCI-H522 lung): > 100 µM
GI50 (SK-MEL-5 melanoma): 4.21 µM
TGI (SK-MEL-5 melanoma): 27.9 µM
GI50 (MDA-MB-435 melanoma): 24.7 µM
TGI (MDA-MB-435 melanoma): > 100 µM
GI50 (IGROV1 ovarian): 1.18 µM
TGI (IGROV1 ovarian): 11.3 µM
GI50 (RPMI-8226 leukemia): 2.39 µM
TGI (RPMI-8226 leukemia): 9.89 µM
GI50 (TK-10 renal): 12 µM
TGI (TK-10 renal): > 100 µM
GI50 (HCT-116 colon): 16.8 µM
TGI (HCT-116 colon): > 100 µM
GI50 (MALME-3M melanoma): 3.9 µM
TGI (MALME-3M melanoma): 42.4 µM
GI50 (SR leukemia): 1.28 µM
TGI (SR leukemia): 4.28 µM
GI50 (U251 glioblastoma): 67.4 µM
TGI (U251 glioblastoma): > 100 µM
GI50 (SNB-75 CNS): 1.34 µM
TGI (SNB-75 CNS): 11.7 µM
GI50 (T-47D breast): 4.32 µM
TGI (T-47D breast): 60.3 µM
GI50 (K-562 leukemia): 71.9 µM
TGI (K-562 leukemia): > 100 µM
GI50 (A498 renal): 4.52 µM
TGI (A498 renal): 54.3 µM
GI50 (MOLT-4 leukemia): 2.3 µM
TGI (MOLT-4 leukemia): 13.6 µM
GI50 (UO-31 renal): 3.33 µM
TGI (UO-31 renal): > 100 µM
GI50 (HS 578T breast): 1.6 µM
TGI (HS 578T breast): 12.8 µM
GI50 (HL-60(TB) leukemia): 0.975 µM
TGI (HL-60(TB) leukemia): 2.74 µM
GI50 (HOP-92 NSCLC): 6.12 µM
TGI (HOP-92 NSCLC): > 100 µM
GI50 (DU-145 prostate): 25.2 µM
TGI (DU-145 prostate): > 100 µM
GI50 (SN12C renal): 11 µM
TGI (SN12C renal): > 100 µM
GI50 (KM12 colon): 15.4 µM
TGI (KM12 colon): > 100 µM
GI50 (SK-MEL-28 melanoma): 9.73 µM
TGI (SK-MEL-28 melanoma): > 100 µM
GI50 (SF-295 CNS): 7.25 µM
TGI (SF-295 CNS): > 100 µM
GI50 ([…]-0 renal): 26.3 µM
TGI (786-0 renal): > 100 µM
GI50 (RXF 393 renal): 0.281 µM
TGI (RXF 393 renal): 1.82 µM
GI50 (ACHN renal): 7.99 µM
TGI (ACHN renal): > 100 µM
GI50 (NCI-H23 lung): 22.1 µM
TGI (NCI-H23 lung): > 100 µM
GI50 (CAKI-1 renal): 7.96 µM
TGI (CAKI-1 renal): > 100 µM
GI50 (MDA-MB-231 breast): 17.6 µM
TGI (MDA-MB-231 breast): > 100 µM
GI50 (MDA-MB-468 breast): 1.46 µM
TGI (MDA-MB-468 breast): 7.84 µM
GI50 (EKVX NSCLC): 5.6 µM
TGI (EKVX NSCLC): > 100 µM
GI50 (COLO 205 colon): 26.7 µM
TGI (COLO 205 colon): > 100 µM
GI50 (MCF7 breast): 1.34 µM
TGI (MCF7 breast): > 100 µM
GI50 (CCRF-CEM leukemia): 7.05 µM
TGI (CCRF-CEM leukemia): 30.6 µM
GI50 (A549 NSCLC): 7.24 µM
TGI (A549 NSCLC): > 100 µM
GI50 (NCI-H226 lung): 12.5 µM
TGI (NCI-H226 lung): > 100 µM
GI50 (M14 melanoma): 18.2 µM
TGI (M14 melanoma): > 100 µM
GI50 (LOX IMVI melanoma): 21.1 µM
TGI (LOX IMVI melanoma): > 100 µM
